Results on one compound are retold here after article PMC3977574, “Structural Basis of Mos1 Transposase Inhibition by the Anti-retroviral Drug Raltegravir” (ACS Chemical Biology, 2014).

This assay deals with T1, Mos1 transposase (Drosophila mauritiana, UniProt Q7JQ07, T216A).
T1 construct: gene mariner\T; Mos1 transposase catalytic domain (crystal); Mos1 transposase and paired-end complex (thermal denaturation and activity assays)
Briefly: X-ray co-crystal structures at […] Å (soak); thermal denaturation shift; strand transfer assay IC50 […]; plasmid cleavage assay IC50 […]. Format: biochemical.

SMILES strings stand for the structures.

T1 sequence (Q7JQ07 whole entry T216A, the tested form may be a part): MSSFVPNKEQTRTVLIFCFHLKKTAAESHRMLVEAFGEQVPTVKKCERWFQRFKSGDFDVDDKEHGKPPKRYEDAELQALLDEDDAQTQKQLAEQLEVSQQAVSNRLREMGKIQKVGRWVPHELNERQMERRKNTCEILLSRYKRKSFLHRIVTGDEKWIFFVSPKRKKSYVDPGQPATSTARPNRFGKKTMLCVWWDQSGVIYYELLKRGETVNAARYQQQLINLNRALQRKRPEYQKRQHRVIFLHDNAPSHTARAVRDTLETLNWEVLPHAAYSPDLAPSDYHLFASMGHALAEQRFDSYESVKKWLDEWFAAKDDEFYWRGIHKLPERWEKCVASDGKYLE

A word on the IC50: it is the midpoint of a concentration-inhibition curve. Turning to `Cc1nnc(C(=O)NC(C)(C)c2nc(C(=O)NCc3ccc(F)cc3)c(O)c(=O)n2C)o1` [Raltegravir], the IC50 is approximately 2 µM.
